Data: the supplement of paper PMC10307832

Assays:
Test in all cases: relative viability (nuclei count vs DMSO), 5 days (fraction); higher = more cells survive
[1] = compound: C1CC1C(=O)NC2=NNC3=C2C=CC(=C3)C4=CC(=CC=C4)C(=O)NC5CC5 [XMD13-2] + COc1cccc2cc(-c3nc([C@H]4CC[C@H](C(=O)O)CC4)n4ncnc(N)c34)[nH]c12 [OSI-027] (partner 0.5 µM)
In short: (§1)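 Each reported value is a median over duplicate plates. It expresses relative viability: treated-well nuclei count divided by vehicle-well nuclei count. Lung cancer cell lines in 1536-well plates were dosed by pin tool a day after seeding, alone with one drug or with a fixed anchor-drug dose plus five library-drug doses (not always all listed) in √10 steps, and nuclei were counted after 5 days.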

[2] = compound: Cc1ccc(C(=O)Nc2cccc(C(F)(F)F)c2)cc1Nc1cncc(C(N)=O)c1 [ALW-II-49-7] + COc1cc2c(Oc3ccc(NC(=O)C4(C(=O)Nc5ccc(F)cc5)CC4)cc3F)ccnc2cc1OCCCN1CCOCC1 [Foretinib] (partner 0.25 µM)
In short: as §1

[3] = compound: Cc1ccc(C(=O)Nc2cccc(C(F)(F)F)c2)cc1Nc1cncc(C(N)=O)c1 [ALW-II-49-7] + Nc1ncn([C@H]2C[C@H](O)[C@@H](CO)O2)c(=O)n1 [Decitabine] (partner 2 µM)
In short: as §1

[4] = compound: Cc1nc(Nc2ncc(C(=O)Nc3c(C)cccc3Cl)s2)cc(N2CCN(CCO)CC2)n1 [Dasatinib] + Nc1ncn([C@H]2C[C@H](O)[C@@H](CO)O2)c(=O)n1 [Decitabine] (partner 2 µM)
In short: as §1

Cell Line | relative viability ([1]; first compound 0.05 µM) | relative viability ([1]; first compound 0.1581 µM) | relative viability ([1]; first compound 0.5 µM) | relative viability ([1]; first compound 1.581 µM) | relative viability ([1]; first compound 5 µM) | relative viability ([2]; first compound 0.08 µM) | relative viability ([2]; first compound 0.253 µM) | relative viability ([2]; first compound 0.8 µM) | relative viability ([2]; first compound 2.53 µM) | relative viability ([2]; first compound 8 µM) | relative viability ([3]; first compound 0.08 µM) | relative viability ([3]; first compound 0.253 µM) | relative viability ([3]; first compound 0.8 µM) | relative viability ([3]; first compound 2.53 µM) | relative viability ([3]; first compound 8 µM) | relative viability ([4]; first compound 0.005 µM) | relative viability ([4]; first compound 0.01581 µM) | relative viability ([4]; first compound 0.05 µM) | relative viability ([4]; first compound 0.1581 µM) | relative viability ([4]; first compound 0.5 µM)
ChaGo-K-1 | 0.642 | 0.545 | 0.597 | 0.542 | 0.497 | 0.971 | 0.968 | 0.931 | 0.905 | 0.91 | 0.541 | 0.472 | 0.526 | 0.537 | 0.546 | 0.545 | 0.5 | 0.543 | 0.49 | 0.416
EBC-1 |  |  |  |  |  | 0.0976 | 0.11 | 0.098 | 0.0988 | 0.114 |  |  |  |  |  |  |  |  |  | 
EKVX | 0.832 | 0.68 | 0.78 | 0.682 | 0.863 | 0.781 | 0.753 | 0.898 | 1.05 | 0.746 | 0.513 | 0.321 | 0.327 | 0.318 | 0.408 | 0.307 | 0.291 | 0.304 | 0.187 | 0.146
EMC-BAC-2 | 0.394 | 0.4 | 0.383 | 0.366 | 0.358 | 0.968 | 1.04 | 0.989 | 0.885 | 0.878 | 1.01 | 1.02 | 0.982 | 0.947 | 0.907 | 0.982 | 0.946 | 0.824 | 0.758 | 0.712
EPLC-272H | 0.313 | 0.257 | 0.281 | 0.238 | 0.247 | 0.665 |  | 0.712 | 0.643 | 0.917 | 0.326 | 0.381 | 0.329 | 0.373 | 0.295 | 0.39 | 0.392 | 0.381 | 0.295 | 0.153
H3255 | 0.705 | 0.536 | 0.589 | 0.564 | 0.549 | 1.01 | 0.827 | 0.939 | 1.02 | 0.703 | 0.611 | 0.511 | 0.662 | 0.577 | 0.425 | 0.66 | 0.573 | 0.568 | 0.493 | 0.311
HARA | 0.661 | 0.438 | 0.43 | 0.446 | 0.636 | 0.646 | 0.836 | 1.03 | 0.887 | 1.04 | 0.689 | 0.47 | 0.497 | 0.52 | 0.663 | 0.578 | 0.47 | 0.549 | 0.305 | 0.221
HCC-15 | 0.765 | 0.723 | 0.733 | 0.546 | 0.484 | 1.08 | 1.1 | 1.03 | 0.96 | 1 | 0.596 | 0.654 | 0.626 | 0.624 | 0.644 | 0.609 | 0.606 | 0.496 | 0.428 | 0.466
HCC-44 | 0.565 | 0.57 | 0.507 | 0.381 | 0.438 |  |  |  |  |  | 0.971 | 0.974 | 0.945 | 0.996 | 0.913 | 1.04 | 0.915 | 1.04 | 0.886 | 0.624
